Assay results taken from patent US7151105B2, “Inhibitors of Hepatitis C virus RNA-dependent RNA polymerase, and compositions and treatments using the same” (Agouron Pharmaceuticals, Inc., priority 2004, dated 2006).

Biological target: T1, Recombinant HCV polymerase (Hepatitis C virus genotype 1b, UniProt P26663)
T1 construct: Recombinant HCV polymerase was tested for its ability to perform primer/template-directed transcription
Assay: biochemical
Conditions: inhibition of polymerase-directed transcription; 30 min at 30° C; 30 nM enzyme; cpm data in triplicate
In short: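 Primer/template-directed RNA synthesis by 2.5 pmol HCV polymerase on poly(rC)300/biotin-dG12 with 1 μM GTP plus α-32P-GTP, in pH 7.2 Tris buffer with 10 mM MgCl2, for 30 min at 30 °C. Products were filter-captured and counted, with 1% DMSO final. IC50 was fitted from triplicate cpm; percent inhibition was reported where IC50 was impractical.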

T1 sequence (P26663 2420-3010): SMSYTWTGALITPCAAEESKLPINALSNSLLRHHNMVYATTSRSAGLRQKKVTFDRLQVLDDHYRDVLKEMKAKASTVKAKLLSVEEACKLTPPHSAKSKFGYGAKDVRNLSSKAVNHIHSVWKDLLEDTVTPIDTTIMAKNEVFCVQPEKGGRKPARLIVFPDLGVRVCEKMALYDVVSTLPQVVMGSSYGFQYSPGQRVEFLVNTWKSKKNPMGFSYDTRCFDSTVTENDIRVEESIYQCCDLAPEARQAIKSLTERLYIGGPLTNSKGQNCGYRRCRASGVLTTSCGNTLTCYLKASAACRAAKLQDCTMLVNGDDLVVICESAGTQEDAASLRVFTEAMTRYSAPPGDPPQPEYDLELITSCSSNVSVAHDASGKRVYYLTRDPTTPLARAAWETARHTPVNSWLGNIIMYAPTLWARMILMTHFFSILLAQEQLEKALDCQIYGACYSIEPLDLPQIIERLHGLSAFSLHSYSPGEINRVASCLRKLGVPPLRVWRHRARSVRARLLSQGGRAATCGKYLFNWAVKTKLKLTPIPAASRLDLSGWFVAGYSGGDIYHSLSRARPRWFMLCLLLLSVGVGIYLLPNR

Structure (SMILES): CCc1cc(CCC2(C3CCCC3)CC(O)=C(Cc3nc4nc(C)cc(C)n4n3)C(=O)O2)ccc1CNS(C)(=O)=O (single isomer, unassigned; enantiomer 1) [A(129), Enantiomer 1 of N-[4-(2-{2-cyclopentyl-5-[(5,7-dimethyl[1,2,4]triazolo[1,5-a]pyrimidin-2-yl)methyl]-4-hydroxy-6-oxo-3,6-dihydro-2H-pyran-2-yl}ethyl)-2-ethylbenzyl]methanesulfonamide]
- IC50: 4 nM

Structure (SMILES): CCc1cc(CCC2(C3CCCC3)CC(O)=C(Cc3nc4nc(C)cc(C)n4n3)C(=O)O2)ccc1C (stereo not drawn) [A(111), 6-Cyclopentyl-3[(5,7-dimethyl[1,2,4]triazolo[1,5-a]pyrimidin-2-yl)methyl]-6-[2-(3-ethyl-4-methylphenyl)ethyl]-4-hydroxy-5,6dihydro-2H-pyran-2-one]
- IC50: 5 nM

Structure (SMILES): CCc1cc(CCC2(C3CCCC3)CC(O)=C(Cc3nc4ncccn4n3)C(=O)O2)ccc1NS(C)(=O)=O (stereo not drawn) [A(107), N-(4-{2-[2-cyclopentyl-4-hydroxy-6-oxo-5-([1,2,4]triazolo[1,5-a]pyrimidin-2-ylmethyl)-3,6dihydro-2H-pyran-2-yl]ethyl}-2-ethylphenyl)methanesulfonamide]
- IC50: 6 nM

Structure (SMILES): C[C@@H](NS(=O)(=O)CC(F)(F)F)c1ccc(CCC2(C3CCCC3)CC(=O)CC(=O)O2)cc1 (stereo partly drawn) [A(88), N-((1R)-1-{4-[2-(2-cyclopentyl-4,6-dioxotetrahydro-2H-pyran-2-yl)ethyl]phenyl}ethyl)-2,2,2-trifluoroethanesulfonamide]
- IC50: 27000 nM

Structure (SMILES): CCc1cc(CCC2(C3CCCC3)CC(=O)CC(=O)O2)ccc1NS(C)(=O)=O (stereo not drawn) [A(105), N-{4-[2-(2-cyclopentyl-4,6-dioxotetrahydro-2H-pyran-2-yl)ethyl]-2-ethylphenyl}methanesulfonamide]
- IC50: 250 nM

Structure (SMILES): Cc1cc(C)n2nc(CC3=C(O)CC(CCc4ccc(S(C)(=O)=O)c(Cl)c4)(C4CCCC4)OC3=O)nc2n1 (stereo not drawn) [B(1), 6-{2-[3-Chloro-4-(methylsulfonyl)phenyl]ethyl}-6-cyclopentyl-3-[(5,7-dimethyl[1,2,4]triazolo[1,5-a]pyrimidin-2-yl)methyl]hydroxy-5,6-dihydro-2H-pyran-2-one]
- IC50: 60 nM

Structure (SMILES): CCCOc1cnc(CC)cc1CCC1(C2CCCC2)CC(O)=C(Cc2nc3nc(C)cc(C)n3n2)C(=O)O1 (single isomer, unassigned) [A(54), 6-Cyclopentyl-3-[(5,7-dimethyl[1,2,4]triazolo[1,5-a]pyrimidin-2-yl)methyl]-6-[2-(2-ethyl-5-propoxypyridin-4-yl)ethyl]-4-hydroxy-5,6-dihydro-2H-pyran-2-one]
- IC50: 3 nM

Structure (SMILES): Cc1cc(C)n2nc(CC3=C(O)CC(CCc4ccc(C(=O)O)c(Cl)c4)(C4CCCC4)OC3=O)nc2n1 (stereo not drawn) [B(12)]
- IC50: 110 nM

Structure (SMILES): CCOc1cnc(CC)cc1CCC1(C2CCCC2)CC(O)=C(Cc2nc3ncc(C)cn3n2)C(=O)O1 (stereo not drawn) [A(43), 6-Cyclopentyl-6-[2-(5-ethoxy-2-ethylpyridin-4-yl)ethyl]-4-hydroxy-3-[(6-methyl[1,2,4]triazolo[1,5-a]pyrimidin-2-yl)methyl]-5,6-dihydro-2H-pyran-2-one]
- IC50: 8 nM

Structure (SMILES): CCc1ccc(OC)c(CCC2(C3CCCC3)CC(=O)CC(=O)O2)n1 (stereo not drawn) [A(5), 6-Cyclopentyl-6-[2-(6-ethyl-3-methoxypyridin-2-yl)ethyl]dihydro-2H-pyran-2,4(3H)-dione]
- IC50: 8600 nM

Structure (SMILES): Cc1nn(C)c(C)c1CC1=C(O)CC(CCc2ccc(C(C)(C)C#N)c(F)c2)(C2CCCC2)OC1=O (stereo not drawn) [A(89)]
- IC50: 9 nM

Structure (SMILES): CCc1cc(CCC2(C3CCCC3)CC(O)=C(Cc3nc4ncccn4n3)C(=O)O2)ccc1-c1ncco1 (stereo not drawn) [A(136), 6-Cyclopentyl-6-{2-[3-ethyl-4-(1,3-oxazol-2-yl)phenyl]ethyl}-4-hydroxy-3-([1,2,4]triazolo[1,5-a]pyrimidin-2-ylmethyl)-5,6-dihydro-2H-pyran-2-one]
- IC50: 3 nM

Structure (SMILES): CCC(C#N)(CC)c1ccc(CCC2(C3CCCC3)CC(O)=C(Cc3nc4nc(C)cc(C)n4n3)C(=O)O2)cc1C(F)(F)F (single isomer, unassigned) [A(154), 2-[4-(2-{2-Cyclopentyl-5-[(5,7-dimethyl[1,2,4]triazolo[1,5-a]pyrimidin-2-yl)methyl]-4-hydroxy-6-oxo-3,6-dihydro-2H-pyran-2-yl}ethyl)-2-(trifluoromethyl)phenyl]-2-ethylbutanenitrile]
- IC50: 11 nM

Structure (SMILES): CCC(C#N)(CC)c1ccc(CCC2(C3CCCC3)CC(O)=C(Cc3nc4nc(C)cc(C)n4n3)C(=O)O2)cc1C(F)(F)F (single isomer, unassigned) [A(155), 2-[4-(2-{2-Cyclopentyl-5-[(5,7-dimethyl[1,2,4]triazolo[1,5-a]pyrimidin-2-yl)methyl]-4-hydroxy-6-oxo-3,6-dihydro-2H-pyran-2-yl}ethyl)-2-(trifluoromethyl)phenyl]-2-ethylbutanenitrile]
- IC50: 54 nM

Structure (SMILES): COc1cnc(C)cc1CCC1(C2CCCC2)CC(=O)CC(=O)O1 (stereo not drawn) [A(7), 6-Cyclopentyl-6-[2-(5-methoxy-2-methylpyridin-4-yl)ethyl]dihydro-2H-pyran-2,4(3H)dione]
- IC50: 11300 nM

Structure (SMILES): COC(=O)c1ccc(CCC2(C3CCCC3)CC(=O)CC(=O)O2)cc1F (stereo not drawn) [B(5), Methyl 4-[2-(2-cyclopentyl-4,6-dioxotetrahydro-2H-pyran-2-yl)ethyl]-2-fluorobenzoate]
- IC50: 22000 nM

Structure (SMILES): CCc1cc(CCC2(C3CCCC3)CC(O)=C(Cc3nc4nc(C)cc(C)n4n3)C(=O)O2)ccc1CO (single isomer, unassigned; enantiomer 1) [A(114), Enantiomer 1 of 6-cyclopentyl-3-[(5,7-dimethyl[1,2,4]triazolo[1,5-a]pyrimidin-2-yl)methyl]-6-{2-[3-ethyl-4-(hydroxymethyl)phenyl]ethyl}4-hydroxy-5,6dihydro-2H-pyran-2-one]
- IC50: 5 nM

Structure (SMILES): CCc1cc(CCC2(C3CCCC3)CC(O)=C(Cc3nc4nc(C)cc(C)n4n3)C(=O)O2)ccc1-c1ncco1 (stereo not drawn) [A(134), 6-cyclopentyl-3-[(5,7-dimethyl[1,2,4]triazolo[1,5-a]pyrimidin-2-yl)methyl]-6-{2-[3-ethyl-4-(1,3-oxazol-2-yl)phenyl]ethyl}-4-hydroxy-5,6-dihydro-2H-pyran-2-one]
- IC50: 3 nM

Structure (SMILES): CCCOc1cnc(CC)cc1CCC1(C2CCCC2)CC(O)=C(Cc2nc3ncc(C)cn3n2)C(=O)O1 (stereo not drawn) [A(46), 6-Cyclopentyl-6-[2-(2-ethyl-5-propoxypyridin-4-yl)ethyl]-4-hydroxy-3-[(6-methyl[1,2,4]triazolo[1,5-a]pyrimidin-2-yl)methyl]-5,6-dihydro-2H-pyran-2-one]
- IC50: 6 nM

Structure (SMILES): Cc1nc(CC2=C(O)CC(CCc3ccc(C(C)(C)C#N)c(F)c3)(C3CCCC3)OC2=O)n(C)n1 (stereo not drawn) [A(84), 2-[4-(2-{2-Cyclopentyl-5-[(1,3-dimethyl-1H-1,2,4-triazol-5-yl)methyl]-4-hydroxy-6-oxo-3,6-dihydro-2H-pyran-2-yl}ethyl)-2-fluorophenyl]-2-methylpropanenitrile]
- IC50: 72 nM

Structure (SMILES): CCCOc1cnc(CC)cc1CCC1(C2CCCC2)CC(O)=C(Cc2nc3nc(C)cc(C)n3n2)C(=O)O1 (single isomer, unassigned) [A(53), 6-Cyclopentyl-3-[(5,7-dimethyl[1,2,4]triazolo[1,5-a]pyrimidin-2-yl)methyl]-6-[2-(2-ethyl-5-propoxypyridin-4-yl)ethyl]-4-hydroxy-5,6-dihydro-2H-pyran-2-one]
- IC50: 3 nM
